Data from ChEMBL document CHEMBL1909294, “Translating clinical findings into knowledge in drug safety evaluation--drug induced liver injury prediction system (DILIps)” (PLoS Comput Biol, 2011).
*1 amine or outer side, *2 acyl side, *3 side chain or, on linkers, in order; H or OH if unused. Where a SMILES comes first, the peptide text is derived from it. Bridges are numbered along the chain shown (N, C = ends). [ ]: non-standard residue; d: D form. The star is where a group is joined. pTerphenylCO(4''-OnC5H11) = CCCCCOc1ccc(-c2ccc(-c3ccc(C(=O)*)cc3)cc2)cc1; Orn(4R-OH,5R-OH) = O=C([C@H](C[C@@H](O)[C@@H](O)N[*:3])N[*:1])[*:2]; hTyr(3S-OH,4S-OH) = N[C@H](C(=O)O)[C@H](O)[C@@H](O)c1ccc(O)cc1; Pro(3S-OH,4S-Me) = C[C@H]1CN[C@H](C(=O)O)[C@H]1O; Hyp = O=C(O)[C@@H]1C[C@@H](O)CN1

Key:
Hepatotoxicity [1] = system: Hepatotoxicity;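 on HepSE Combined Scores: combined hepatic side effect score as listed in the training data of the Drug Induced Liver Injury Prediction System (DILIps)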;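 on HepSE bilirubinemia: bilirubinemia hepatic side effect score drawn from the DILIps training data, a prediction system for drug-induced liver injury; call rule not given here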;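 on HepSE cholelithiasis: hepatic side effect score for cholelithiasis, drawn from the DILIps training data for predicting drug-induced liver injury; call rule not given here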;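 on HepSE cirrhosis: cirrhosis hepatic side effect score taken from the DILIps (drug-induced liver injury prediction) training set; call rule not given here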;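 on HepSE hepatomegaly: hepatic side effect score for hepatomegaly, taken from the training set of the DILIps drug-induced liver injury prediction system; call rule not given here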; on HepSE liver disease: call rule not given here;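 on HepSE liver function tests abnormal: hepatic side effect score taken from the DILIps (drug-induced liver injury prediction system) training data, here covering abnormal liver function test findings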
Hepatotoxicity [2] = system: Hepatotoxicity; remark: listed apart in the source;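 on HepSE Combined Scores: combined hepatic side effect score as listed in the training data of the Drug Induced Liver Injury Prediction System (DILIps)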;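 on HepSE bilirubinemia: bilirubinemia hepatic side effect score drawn from the DILIps training data, a prediction system for drug-induced liver injury; call rule not given here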;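 on HepSE cholelithiasis: hepatic side effect score for cholelithiasis, drawn from the DILIps training data for predicting drug-induced liver injury; call rule not given here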;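 on HepSE hepatomegaly: hepatic side effect score for hepatomegaly, taken from the training set of the DILIps drug-induced liver injury prediction system; call rule not given here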; on HepSE liver disease: call rule not given here;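 on HepSE liver function tests abnormal: hepatic side effect score taken from the DILIps (drug-induced liver injury prediction system) training data, here covering abnormal liver function test findings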
Hepatotoxicity [3] = system: Hepatotoxicity; remark: listed apart in the source;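 on HepSE Combined Scores: combined hepatic side effect score as listed in the training data of the Drug Induced Liver Injury Prediction System (DILIps)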;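 on HepSE bilirubinemia: bilirubinemia hepatic side effect score drawn from the DILIps training data, a prediction system for drug-induced liver injury; call rule not given here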;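 on HepSE cholelithiasis: hepatic side effect score for cholelithiasis, drawn from the DILIps training data for predicting drug-induced liver injury; call rule not given here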;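 on HepSE hepatomegaly: hepatic side effect score for hepatomegaly, taken from the training set of the DILIps drug-induced liver injury prediction system; call rule not given here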; on HepSE liver disease: call rule not given here;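 on HepSE liver function tests abnormal: hepatic side effect score taken from the DILIps (drug-induced liver injury prediction system) training data, here covering abnormal liver function test findings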
Hepatotoxicity [4] = system: Hepatotoxicity; remark: listed apart in the source;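 on HepSE Combined Scores: combined hepatic side effect score as listed in the training data of the Drug Induced Liver Injury Prediction System (DILIps)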;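 on HepSE bilirubinemia: bilirubinemia hepatic side effect score drawn from the DILIps training data, a prediction system for drug-induced liver injury; call rule not given here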;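 on HepSE cholelithiasis: hepatic side effect score for cholelithiasis, drawn from the DILIps training data for predicting drug-induced liver injury; call rule not given here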;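 on HepSE hepatomegaly: hepatic side effect score for hepatomegaly, taken from the training set of the DILIps drug-induced liver injury prediction system; call rule not given here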; on HepSE liver disease: call rule not given here;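 on HepSE liver function tests abnormal: hepatic side effect score taken from the DILIps (drug-induced liver injury prediction system) training data, here covering abnormal liver function test findings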
Hepatotoxicity [5] = system: Hepatotoxicity; remark: listed apart in the source; on HepSE liver disease: call rule not given here
Hepatotoxicity [6] = system: Hepatotoxicity; remark: listed apart in the source; on HepSE liver disease: call rule not given here
Hepatotoxicity [7] = system: Hepatotoxicity; remark: listed apart in the source
Hepatotoxicity [8] = system: Hepatotoxicity; remark: listed apart in the source
Hepatotoxicity [9] = system: Hepatotoxicity; remark: listed apart in the source
Hepatotoxicity [10] = system: Hepatotoxicity; remark: listed apart in the source
Hepatotoxicity [11] = system: Hepatotoxicity; remark: listed apart in the source
Hepatotoxicity [12] = system: Hepatotoxicity; remark: listed apart in the source
Hepatotoxicity [13] = system: Hepatotoxicity; remark: listed apart in the source
Hepatotoxicity [14] = system: Hepatotoxicity; remark: listed apart in the source

Row | SMILES | HepSE_hepatomegaly (Hepatotoxicity [1]) | HepSE_bilirubinemia (Hepatotoxicity [2]) | HepSE_liver function tests abnormal (Hepatotoxicity [3]) | HepSE_cholelithiasis (Hepatotoxicity [4]) | HepSE_Combined Scores (Hepatotoxicity [5]) | HepSE_liver fatty (Hepatotoxicity [6]) | HepSE_liver disease (Hepatotoxicity [7]) | HepSE_cirrhosis (Hepatotoxicity [8]) | HepSE_hepatitis (Hepatotoxicity [9]) | HepSE_jaundice (Hepatotoxicity [10]) | HepSE_hepatic failure (Hepatotoxicity [11]) | HepSE_cholecystitis (Hepatotoxicity [12]) | HepSE_elevated liver function tests (Hepatotoxicity [13]) | HepSE_hepatic necrosis (Hepatotoxicity [14]) | also measured
1 | CCCCCOc1ccc(-c2ccc(-c3ccc(C(=O)N[C@H]4C[C@@H](O)[C@@H](O)NC(=O)[C@@H]5[C@@H](O)[C@@H](C)CN5C(=O)[C@H]([C@@H](C)O)NC(=O)[C@H]([C@H](O)[C@@H](O)c5ccc(O)cc5)NC(=O)[C@@H]5C[C@@H](O)CN5C(=O)[C@H]([C@@H](C)O)NC4=O)cc3)cc2)cc1 [ANIDULAFUNGIN] ({pTerphenylCO(4''-OnC5H11)}-[Orn(4R-OH,5R-OH)]T[Hyp][hTyr(3S-OH,4S-OH)]T[Pro(3S-OH,4S-Me)]; lactam 1-C) | 0 | 0 | 1 | 0 | 2 | 0 | 0 | 0 | 0 | 0 | 0 | 0 | 0 | 1 | 
2 | CN1CCc2cccc3c2[C@H]1Cc1ccc(O)c(O)c1-3 [APOMORPHINE] | 0 | 0 | 0 | 0 | 0 | 0 | 0 | 0 | 0 | 0 | 0 | 0 | 0 | 0 | 
3 | Nc1cc(Cl)c(N=C2NCCN2)c(Cl)c1 [APRACLONIDINE] | 0 | 0 | 0 | 0 | 0 | 0 | 0 | 0 | 0 | 0 | 0 | 0 | 0 | 0 | 
4 | C[C@@H](O[C@H]1OCCN(Cc2n[nH]c(=O)[nH]2)[C@H]1c1ccc(F)cc1)c1cc(C(F)(F)F)cc(C(F)(F)F)c1 [APREPITANT] | 0 | 0 | 0 | 0 | 0 | 0 | 0 | 0 | 0 | 0 | 0 | 0 | 0 | 0 | 
5 | CC1CNc2c(cccc2S(=O)(=O)N[C@@H](CCCNC(=N)N)C(=O)N2CC[C@@H](C)C[C@@H]2C(=O)O)C1 (stereo partly drawn) [ARGATROBAN] | 0 | 0 | 0 | 0 | 0 | 0 | 0 | 0 | 0 | 0 | 0 | 0 | 0 | 0 | 
6 | N=C(N)NCCC[C@H](N)C(=O)O [ARGININE] | 0 | 0 | 0 | 0 | 0 | 0 | 0 | 0 | 0 | 0 | 0 | 0 | 0 | 0 | 
7 | O=C1CCc2ccc(OCCCCN3CCN(c4cccc(Cl)c4Cl)CC3)cc2N1 [ARIPIPRAZOLE] | 1 | 1 | 0 | 1 | 6 | 0 | 0 | 0 | 1 | 1 | 0 | 1 | 0 | 0 | 
8 | O=[As][As+](=O)[O-] (stereo not drawn) [ARSENIC TRIOXIDE] | 0 | 0 | 0 | 0 | 0 | 0 | 0 | 0 | 0 | 0 | 0 | 0 | 0 | 0 | 
9 | CCCNC(C)C(=O)Nc1c(C)csc1C(=O)OC (stereo not drawn) [ARTICAINE] | 0 | 0 | 0 | 0 | 0 | 0 | 0 | 0 | 0 | 0 | 0 | 0 | 0 | 0 | 
10 | CC(=O)Oc1ccccc1C(=O)O [ASPIRIN] | 0 | 0 | 0 | 0 | 0 | 0 | 0 | 0 | 0 | 0 | 0 | 0 | 0 | 0 | 
11 | COC(=O)N[C@H](C(=O)N[C@@H](Cc1ccccc1)[C@@H](O)CN(Cc1ccc(-c2ccccn2)cc1)NC(=O)[C@@H](NC(=O)OC)C(C)(C)C)C(C)(C)C [ATAZANAVIR] | 1 | 1 | 0 | 1 | 7 | 1 | 0 | 0 | 1 | 1 | 0 | 1 | 0 | 0 | 
12 | CNCC[C@@H](Oc1ccccc1C)c1ccccc1 [ATOMOXETINE] | 0 | 0 | 1 | 0 | 1 | 0 | 0 | 0 | 0 | 0 | 0 | 0 | 0 | 0 | 
13 | O=C1C(O)=C([C@H]2CC[C@H](c3ccc(Cl)cc3)CC2)C(=O)c2ccccc21 [ATOVAQUONE] | 0 | 0 | 0 | 0 | 2 | 0 | 0 | 0 | 1 | 0 | 1 | 0 | 0 | 0 | 
14 | Cn1cnc([N+](=O)[O-])c1Sc1ncnc2nc[nH]c12 [AZATHIOPRINE] |  |  |  |  |  |  |  |  |  |  |  |  |  |  | HepSE_hepatomegaly (Hepatotoxicity [1]; Liver): 0; HepSE_bilirubinemia (Hepatotoxicity [2]; Liver): 0; HepSE_liver function tests abnormal (Hepatotoxicity [3]; Liver): 0; HepSE_cholelithiasis (Hepatotoxicity [4]; Liver): 0; HepSE_Combined Scores (Hepatotoxicity [5]; Liver): 0; HepSE_liver fatty (Hepatotoxicity [6]; Liver): 0; HepSE_liver disease (Hepatotoxicity [7]; Liver): 0; HepSE_cirrhosis (Hepatotoxicity [8]; Liver): 0; HepSE_hepatitis (Hepatotoxicity [9]; Liver): 0; HepSE_jaundice (Hepatotoxicity [10]; Liver): 0; HepSE_hepatic failure (Hepatotoxicity [11]; Liver): 0; HepSE_cholecystitis (Hepatotoxicity [12]; Liver): 0; HepSE_elevated liver function tests (Hepatotoxicity [13]; Liver): 0; HepSE_hepatic necrosis (Hepatotoxicity [14]; Liver): 0
15 | O=C(O)CCCCCCCC(=O)O [AZELAIC ACID] | 0 | 0 | 0 | 0 | 0 | 0 | 0 | 0 | 0 | 0 | 0 | 0 | 0 | 0 | 
16 | CN1CCCC(n2nc(Cc3ccc(Cl)cc3)c3ccccc3c2=O)CC1 (stereo not drawn) [AZELASTINE] | 0 | 0 | 0 | 0 | 0 | 0 | 0 | 0 | 0 | 0 | 0 | 0 | 0 | 0 | 
17 | CC[C@H]1OC(=O)[C@H](C)[C@@H](O[C@H]2C[C@@](C)(OC)[C@@H](O)[C@H](C)O2)[C@H](C)[C@@H](O[C@@H]2O[C@H](C)C[C@H](N(C)C)[C@H]2O)[C@](C)(O)C[C@@H](C)CN(C)[C@H](C)[C@@H](O)[C@]1(C)O [AZITHROMYCIN] | 0 | 0 | 1 | 0 | 5 | 0 | 0 | 0 | 1 | 1 | 1 | 0 | 0 | 1 | 
